Assay results published in PMC8533149 (Biomolecules, 2021).

Tested on: HIV-1 LTR-III G-quadruplex (FAM/TAMRA-labeled LTR-III)
Test: FRET melting assay, LTR-III G4
Type: binding
Details: Table S1 primary screening, ligand:ODN 50:1, singlicate
Description: To evaluate stabilizing properties of the ligands in a complex with oligodeoxyribonucleotides (ODNs) melting with fluorescence registration was used. ODN (0.5 μM) (Table 1), labeled with 6-carboxyfluorescein (FAM) and 6-carboxytetramethylrhodamine (TAMRA) at the 5′- and 3′-end, respectively, were folded in lithium cacodylate buffer (10 mM, pH 7.4) with 100 mM KCl by heating at 95 °C for 5 min and gradually cooling to r.t. GFP chromophore analogs (5 mM solution in DMSO) were diluted with the same buffer to the final concentration of 25 μM and mixed with an equal volume of 0.5 μM ODN solution resulting in a molar ratio of 50:1 (total volume was 50 μL). For the titration experiments molar ratios of 20:1 and 2:1 were used. Samples were analyzed using DTprime qPCR system (DNA-Technology LLC, Moscow, Russia). Fluorescence was registered by detection of FAM emission at 520 nm upon excitation at 495 nm in the temperature range of 30–95 °C with 1 °C/min gradient. Tm was determined using the instrument software and ΔTm was calculated relative to ODN Tm in a buffer solution containing 0.25% (v/v) DMSO. The primary and secondary screening were carried out in singlicate and triplicate, respectively.

| SMILES | LTR-III ΔTm |
| --- | --- |
| CC1=CC(C)(C)N(C)c2ccc(C=C3N=C(C)N(C)C3=O)cc21 [M 1152] | 0.6 °C |
| CNc1ccc(C=C2N=C(C)N(C)C2=O)cc1N [M 1165] | 0.9 °C |
| Oc1cccc2nc3ccccc3nc12 [M 1255] | -0.6 °C |
| CC1=NC(=Cc2cccc([N+](=O)[O-])c2)C(=O)N1C [M 1257] | -0.9 °C |
| CC1=NC(=Cc2cccc(O)c2)C(=O)N1C [M 1300] | 0.2 °C |
| CCOC(=O)CN1C(=O)C(=Cc2cc3c4c(c2)CCCN4CCC3)N=C1C [M 1343] | 0 °C |
| CCOC(=O)/C=C/c1ccc(O[Si](c2ccccc2)(c2ccccc2)C(C)(C)C)cc1 [M 1352] | -0.5 °C |
| CC(C)(C)[Si](Oc1ccc(/C=C/CO)cc1)(c1ccccc1)c1ccccc1 [M 1359] | 0.1 °C |
| COc1ccc2cc(C(c3ccc(C)cc3)C(c3ccc(C)cc3)c3ccc4cc(OC)ccc4c3)ccc2c1 (stereo not shown) [M 1362.2] | -0.6 °C |
| CC(C)(C)[Si](Oc1ccc(C=CC=O)cc1)(c1ccccc1)c1ccccc1 [M 1373.2] | -0.5 °C |
| CC1=NC(=CC=Cc2ccc(O)cc2)C(=O)N1C [M 1378] | -0.7 °C |
| CCN1C(=O)C(=CC=Cc2ccc(O)cc2)N=C1C [M 1379.2] | -0.2 °C |
| CCC1=NC(=Cc2ccc(O[Si](c3ccccc3)(c3ccccc3)C(C)(C)C)cc2)C(=O)N1O[Si](c1ccccc1)(c1ccccc1)C(C)(C)C [M 1505] | -0.3 °C |
| CCCC1=NC(=Cc2ccc(O[Si](c3ccccc3)(c3ccccc3)C(C)(C)C)cc2)C(=O)N1C [M 1550] | -0.1 °C |
| CCC1=NC(=Cc2ccc(O[Si](c3ccccc3)(c3ccccc3)C(C)(C)C)cc2)C(=O)N1C [M 1557] | -0.1 °C |
| CC1=NC(=Cc2ccco2)C(=O)N1C [M 1583.2] | -0.5 °C |
| CC1=NC(=Cc2cccs2)C(=O)N1C [M 1583.3] | 0.1 °C |
| CC1=NC(=Cc2ccccc2O)C(=O)N1C [M 1583.4] | 0.2 °C |
| COc1ccccc1C=C1N=C(C)N(C)C1=O [M 1583.5] | 0.1 °C |
| COc1ccc(/C=C2\N=C(C)N(C)C2=O)cc1OC [M 1583.6] | 0 °C |
| CC1=NC(=Cc2ccc(O)c(O)c2)C(=O)N1C [M 1583.7] | -1.4 °C |
| CC1=N/C(=C\c2ccccc2O[Si](c2ccccc2)(c2ccccc2)C(C)(C)C)C(=O)N1C [M 1586] | -0.3 °C |

| SMILES | LTR-III ΔTm |
| --- | --- |
| CCCCN(CCCC)c1cccc(C=C2N=C(C)N(C)C2=O)c1 [M 1600] | -0.4 °C |
| CC1=NC(=Cc2ccc(O[Si](c3ccccc3)(c3ccccc3)C(C)(C)C)c(O)c2)C(=O)N1C [M 1620] | 0.4 °C |
| CCN(CC)c1ccc(C=C2N=C(C)N(C)C2=O)cc1 [M 1661] | 0.4 °C |
| Br.CC1=NC(=Cc2ccc(N(C)C)cc2)C(=O)N1CCN [M 1668] | 0.2 °C |
| CCN(CC)c1ccc(C=C2N=C(C(C)=O)N(C)C2=O)cc1 [M 1706] | -0.4 °C |
| COc1ccc(C=C2N=C(C)N(C)C2=O)cc1 [M 1814] | -0.3 °C |
| CCOC(=O)CN1C(=O)C(=Cc2ccc(O)cc2)N=C1C [M 1831.1] | -0.2 °C |
| CCCC1=NC(=C(N)c2ccccc2)C(=O)N1 [M 1862] | -1.1 °C |
| CCCC1=NC(=C(NB(F)F)c2ccccc2)C(=O)N1 [M 1878.1] | -1.5 °C |
| CCN(CC)c1ccc(/C=C2\N=C(C)N(C)C2=O)c(O)c1 [M 1933] | -0.3 °C |
| COc1ccc(C=C2N=C(Nc3ccccc3)N(C)C2=O)cc1 [M 1944b] | -0.3 °C |
| CCCC1=NC(=CN(C)C)C(=O)N1C [M 1945.1] | -0.6 °C |
| CCN(CC)c1ccc(C=C2N=C(C=Cc3ccc(OC)cc3)N(C)C2=O)c(B(F)F)c1 [M 1971a] | -0.3 °C |
| CCN(CC)c1ccc(C=C2N=C(C=CC=Cc3ccc(OC)cc3)N(C)C2=O)c(B(F)F)c1 [M 1971c] | 0.6 °C |
| CC1=NC(=Cc2c[nH]c3cccc(C)c23)C(=O)N1C [M 1974] | 0 °C |
| CC(=O)C1=N/C(=C\c2c[nH]c3ccccc23)C(=O)N1C [M 1975] | -0.6 °C |
| CCC(=O)n1cc(C=C2N=C(CC)OC2=O)c2c(C)cccc21 [M 1977] | 0 °C |
| CCC1=NC(=Cc2c[nH]c3cccc(C)c23)C(=O)N1C [M 1978] | -0.1 °C |
| CCC(=O)NC(=Cc1c[nH]c2cccc(C)c12)C(=O)NC [M 1979] | -0.1 °C |
| CC(=O)C1=NC(=Cc2c[nH]c3cccc(C)c23)C(=O)N1C [M 1981] | 1.7 °C |
| CC1=NC(=Cc2ccncc2)C(=O)N1C [M 1998] | -0.4 °C |
| CC1=NC(=Cc2ccc(N(C)C)cc2)C(=O)N1CCNC(=O)OC(C)(C)C [M 2022a] | -0.2 °C |

| SMILES | LTR-III ΔTm |
| --- | --- |
| COc1ccc(C=C2N=C(C)N(CCNC(=O)OC(C)(C)C)C2=O)cc1 [M 2022b] | 0 °C |
| CC1=NC(=Cc2ccccc2)C(=O)N1CCNC(=O)OC(C)(C)C [M 2022d] | -0.3 °C |
| COc1ccc(C=C2N=C(C)N(CCNC(=O)OC(C)(C)C)C2=O)cc1OC [M 2022e] | 0 °C |
| CCN(CC)c1ccc(C=C2N=C(C)N(CCNC(=O)OC(C)(C)C)C2=O)cc1 [M 2026c] | 0.2 °C |
| COc1cccc(C=C2N=C(C)N(CCNC(=O)OC(C)(C)C)C2=O)c1 [M 2026f] | -0.4 °C |
| COc1ccc(C=C2C(=O)N(C)C(C)=[N+]2C)cc1.O=S(=O)([O-])C(F)(F)F [M 2060] | -0.2 °C |
| CCN(CC)C(=S)Oc1ccc(C=C2N=C(c3ccccc3)N(C)C2=O)cc1 [M 2069] | -0.4 °C |
| CCN(CC)C(=O)Sc1ccc(C=C2N=C(c3ccccc3)N(C)C2=O)cc1 [M 2075] | 0.3 °C |
| CCN(CC)C(=S)Oc1ccc(C=C2N=C(C)N(C)C2=O)cc1 [M 2081] | 0.1 °C |
| CCCC1=N/C(=C\c2ccncc2)C(=O)N1C [M 2237] | -0.3 °C |
| CC1=NC(=Cc2ccncc2)C(=O)N1CCNC(=O)OC(C)(C)C [M 2250.2] | -0.1 °C |
| CC1=NC(=Cc2cc(C(C)(C)C)c(O)c(C(C)(C)C)c2)C(=O)N1C [M 2273.1] | 0.2 °C |
| CCOC(=O)CN1C(=O)C(=Cc2ccc(O)c(F)c2)N=C1C [M 2286.1] | -0.3 °C |
| CC1=NC(=Cc2cc(F)c(O)c(F)c2)C(=O)N1C [M 2296] | -0.4 °C |
| COc1ccc(O)c(C=C2N=C(C)N(C)C2=O)c1 [M 2360] | -0.3 °C |
| CN1C(=O)C(=Cc2ccc(N(C)C)cc2)N=C1C=Cc1cc(Br)c(O)c(Br)c1 [M 2368c] | 0 °C |
| CCN(CC)c1ccc(C=C2N=C(C=Cc3cc(Br)c(O)c(Br)c3)N(C)C2=O)cc1 [M 2368d] | 0.1 °C |
| CC(=O)Oc1ccc(C=C2N=C(C)N(C)C2=O)cc1 [M 2370] | 0 °C |
| COc1ccc(/C=C2N=C(/C=C/N3CCOCC3)N(C)C\2=O)cc1 [M 2371c] | -0.1 °C |
| CN1C(=O)C(=Cc2ccc(O)cc2)N=C1C(=O)c1ccccc1 [M 2372a] | 0.1 °C |
| CCC(=O)C1=NC(=Cc2ccc(O)cc2)C(=O)N1C [M 2372в] | -0.2 °C |
| CC1=NC(=Cc2cccc(C(F)(F)F)c2)C(=O)N1C [M 2375] | -0.2 °C |

| SMILES | LTR-III ΔTm |
| --- | --- |
| COc1ccc(C=C2N=C(C)N(C)C2=O)c(OC)c1 [M 2379] | 0.1 °C |
| CN1C(=O)C(=Cc2ccc(C#N)cc2)N=C1Nc1ccccc1 [M 2385a] | -0.1 °C |
| CN1C(=O)C(=Cc2ccccc2)N=C1Nc1ccccc1 [M 2385b1] | -0.1 °C |
| CC1=NC(=Cc2ccc(O)c([N+](=O)[O-])c2)C(=O)N1C [M 2482] | -1.2 °C |
| CCOc1cc(C=C2N=C(C)N(C)C2=O)ccc1O [M 2486] | 0 °C |
| CC1=NC(=Cc2ccc(O)c(C#N)c2)C(=O)N1C [M 2489.2] | -0.5 °C |
| COc1cc(C=C2N=C(C)N(C)C2=O)ccc1O [M 2491] | -0.2 °C |
| O=C1NC(=S)NC1=Cc1ccc(O)cc1 [M 2497] | 0 °C |
| COc1cc(/C=C2N=C(/C=C/c3ccccc3)N(C)C\2=O)ccc1O [M 2499a] | 0.1 °C |
| CN1C(=O)C(=Cc2ccc(O)c(O)c2)N=C1C=Cc1ccccc1 [M 2499b] | 0.3 °C |
| COc1cc(O)ccc1C=C1N=C(C(F)(F)F)N(C)C1=O [M 2738c] | 0.4 °C |
| COc1cc(C=C2N=C(C(F)(F)F)N(C)C2=O)c(OC)cc1O [M 2738d] | 1.4 °C |
| COc1cc(O)ccc1/C=C/C1=[N+](C)c2ccccc2C1(C)C.[O-][Cl+3]([O-])([O-])[O-] [M 2761a] | 0.5 °C |
| COc1cc(O)ccc1C=C1N=C(C=Cc2ccccn2)N(C)C1=O [M 2766] | 1.1 °C |
| COc1cc(O)ccc1/C=C1N=C(/C=C/c2ccccc2)N(C)C\1=O [MID 145] | 0.9 °C |
| COc1cc(O)ccc1C=C1N=C(C=Cc2ccc(N(C)C)cc2)N(C)C1=O [MID 147] | 0.4 °C |
| COc1cc(O)ccc1C=C1N=C(C=C(C#N)c2ccccc2)N(C)C1=O [MID 151] | 0.2 °C |
| COc1cc(O)ccc1/C=C1N=C(/C=C(\C#N)c2cccs2)N(C)C\1=O [MID 153] | 2 °C |
| CN1C(=O)C(=Cc2ccc(O)cc2N(C)C)N=C1C=Cc1ccncc1 [MID 213] | 0.9 °C |
